Results published in ChEMBL document CHEMBL1148572, “1-((S)-2-aminopropyl)-1H-indazol-6-ol: a potent peripherally acting 5-HT2 receptor agonist with ocular hypotensive activity” (J Med Chem, 2006).

Tests used:
[1] = molecular target: T1, Dopamine receptor (Homo sapiens) (UniProt P14416+P35462+P21918+P21917+P21728); test: Inhibition of non selective binding to dopamine receptor at 100 nM; assay type: protein assay
[2] = molecular target: T2, GABA-A receptor; benzodiazepine site (Homo sapiens) (UniProt P14867+P18507+P48169+Q99928+P34903+Q8N1C3+P47869+P31644+Q16445); test: Inhibition of central benzodiazepine site on GABAA receptor at 10 uM; assay type: protein-complex assay
[3] = molecular target: T3, Alpha-2A adrenergic receptor (Homo sapiens, UniProt P08913); test: Activity at adrenergic alpha2A receptor expressed in human clonic adenocarcinoma HT29 cell by […]; assay type: functional, cell-based, HT-29
T3 sequence (P08913 whole entry): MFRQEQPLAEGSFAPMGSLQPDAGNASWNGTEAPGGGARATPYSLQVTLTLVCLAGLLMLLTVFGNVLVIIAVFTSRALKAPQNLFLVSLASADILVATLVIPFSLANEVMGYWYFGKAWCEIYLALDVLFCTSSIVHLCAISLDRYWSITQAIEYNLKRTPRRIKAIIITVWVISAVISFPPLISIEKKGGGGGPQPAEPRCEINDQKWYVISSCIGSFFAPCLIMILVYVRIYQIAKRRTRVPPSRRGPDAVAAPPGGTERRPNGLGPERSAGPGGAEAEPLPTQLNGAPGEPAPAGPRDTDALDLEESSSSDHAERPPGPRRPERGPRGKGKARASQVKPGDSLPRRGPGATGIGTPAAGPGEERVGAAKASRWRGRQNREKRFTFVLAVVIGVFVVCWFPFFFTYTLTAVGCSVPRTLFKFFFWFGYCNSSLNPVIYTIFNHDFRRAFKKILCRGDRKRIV

Homo sapiens [4] = species: Homo sapiens; test: Inhibition of inositol triphosphate IP3 at 100 nM; assay type: functional
[5] = molecular target: Muscarinic acetylcholine receptor (Homo sapiens) (UniProt P20309+P08173+P11229+P08172+P08912); test: Inhibition of non selective binding to muscarinic receptor at 1 nM; assay type: protein assay
MDR1 (P-gp) = test: Permeability from apical to basolateral side of the MDCK cell transfected with human MDR1; assay type: ADME, cell-based
[6] = molecular target: T4, 5-hydroxytryptamine receptor 1A (Homo sapiens) (UniProt P08908); test: Inhibition of forskolin activated adenylate cyclase at 1 nM; assay type: functional
T4 sequence (whole entry): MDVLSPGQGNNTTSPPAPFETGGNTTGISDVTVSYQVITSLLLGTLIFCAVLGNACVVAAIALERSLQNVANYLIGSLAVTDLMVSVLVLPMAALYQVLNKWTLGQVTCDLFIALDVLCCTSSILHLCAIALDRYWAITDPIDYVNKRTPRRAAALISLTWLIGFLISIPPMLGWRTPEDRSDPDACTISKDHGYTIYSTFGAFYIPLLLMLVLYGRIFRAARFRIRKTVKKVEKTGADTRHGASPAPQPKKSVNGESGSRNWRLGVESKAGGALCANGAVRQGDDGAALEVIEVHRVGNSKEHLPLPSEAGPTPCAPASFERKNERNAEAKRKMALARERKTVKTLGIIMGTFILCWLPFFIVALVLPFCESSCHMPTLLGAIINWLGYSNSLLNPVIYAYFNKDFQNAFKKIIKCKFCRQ

[7] = molecular target: T4, 5-hydroxytryptamine receptor 1A (Homo sapiens); test: Inhibition of forskolin activated adenylate cyclase at 10 uM; assay type: functional
[8] = molecular target: 5-hydroxytryptamine receptor 5A (Homo sapiens, UniProt P47898); test: Inhibitory activity against 5HT5A receptor
Sequence of 5-hydroxytryptamine receptor 5A (P47898 whole entry): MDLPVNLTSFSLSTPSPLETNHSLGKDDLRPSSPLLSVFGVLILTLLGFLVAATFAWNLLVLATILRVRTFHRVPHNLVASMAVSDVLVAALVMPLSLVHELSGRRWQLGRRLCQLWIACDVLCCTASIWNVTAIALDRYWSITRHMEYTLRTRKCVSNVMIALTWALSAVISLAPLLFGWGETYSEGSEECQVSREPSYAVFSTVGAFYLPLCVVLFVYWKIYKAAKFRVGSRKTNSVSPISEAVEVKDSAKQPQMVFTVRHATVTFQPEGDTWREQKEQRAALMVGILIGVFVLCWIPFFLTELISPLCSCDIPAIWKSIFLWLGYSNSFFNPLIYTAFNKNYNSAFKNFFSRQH

[9] = molecular target: Voltage-dependent N-type calcium channel subunit alpha-1B (Homo sapiens) (UniProt Q00975); test: Inhibitory activity at Calcium channel N type at 10 uM
Sequence of Voltage-dependent N-type calcium channel subunit alpha-1B (Homo sapiens) (Q00975 whole entry, looked up): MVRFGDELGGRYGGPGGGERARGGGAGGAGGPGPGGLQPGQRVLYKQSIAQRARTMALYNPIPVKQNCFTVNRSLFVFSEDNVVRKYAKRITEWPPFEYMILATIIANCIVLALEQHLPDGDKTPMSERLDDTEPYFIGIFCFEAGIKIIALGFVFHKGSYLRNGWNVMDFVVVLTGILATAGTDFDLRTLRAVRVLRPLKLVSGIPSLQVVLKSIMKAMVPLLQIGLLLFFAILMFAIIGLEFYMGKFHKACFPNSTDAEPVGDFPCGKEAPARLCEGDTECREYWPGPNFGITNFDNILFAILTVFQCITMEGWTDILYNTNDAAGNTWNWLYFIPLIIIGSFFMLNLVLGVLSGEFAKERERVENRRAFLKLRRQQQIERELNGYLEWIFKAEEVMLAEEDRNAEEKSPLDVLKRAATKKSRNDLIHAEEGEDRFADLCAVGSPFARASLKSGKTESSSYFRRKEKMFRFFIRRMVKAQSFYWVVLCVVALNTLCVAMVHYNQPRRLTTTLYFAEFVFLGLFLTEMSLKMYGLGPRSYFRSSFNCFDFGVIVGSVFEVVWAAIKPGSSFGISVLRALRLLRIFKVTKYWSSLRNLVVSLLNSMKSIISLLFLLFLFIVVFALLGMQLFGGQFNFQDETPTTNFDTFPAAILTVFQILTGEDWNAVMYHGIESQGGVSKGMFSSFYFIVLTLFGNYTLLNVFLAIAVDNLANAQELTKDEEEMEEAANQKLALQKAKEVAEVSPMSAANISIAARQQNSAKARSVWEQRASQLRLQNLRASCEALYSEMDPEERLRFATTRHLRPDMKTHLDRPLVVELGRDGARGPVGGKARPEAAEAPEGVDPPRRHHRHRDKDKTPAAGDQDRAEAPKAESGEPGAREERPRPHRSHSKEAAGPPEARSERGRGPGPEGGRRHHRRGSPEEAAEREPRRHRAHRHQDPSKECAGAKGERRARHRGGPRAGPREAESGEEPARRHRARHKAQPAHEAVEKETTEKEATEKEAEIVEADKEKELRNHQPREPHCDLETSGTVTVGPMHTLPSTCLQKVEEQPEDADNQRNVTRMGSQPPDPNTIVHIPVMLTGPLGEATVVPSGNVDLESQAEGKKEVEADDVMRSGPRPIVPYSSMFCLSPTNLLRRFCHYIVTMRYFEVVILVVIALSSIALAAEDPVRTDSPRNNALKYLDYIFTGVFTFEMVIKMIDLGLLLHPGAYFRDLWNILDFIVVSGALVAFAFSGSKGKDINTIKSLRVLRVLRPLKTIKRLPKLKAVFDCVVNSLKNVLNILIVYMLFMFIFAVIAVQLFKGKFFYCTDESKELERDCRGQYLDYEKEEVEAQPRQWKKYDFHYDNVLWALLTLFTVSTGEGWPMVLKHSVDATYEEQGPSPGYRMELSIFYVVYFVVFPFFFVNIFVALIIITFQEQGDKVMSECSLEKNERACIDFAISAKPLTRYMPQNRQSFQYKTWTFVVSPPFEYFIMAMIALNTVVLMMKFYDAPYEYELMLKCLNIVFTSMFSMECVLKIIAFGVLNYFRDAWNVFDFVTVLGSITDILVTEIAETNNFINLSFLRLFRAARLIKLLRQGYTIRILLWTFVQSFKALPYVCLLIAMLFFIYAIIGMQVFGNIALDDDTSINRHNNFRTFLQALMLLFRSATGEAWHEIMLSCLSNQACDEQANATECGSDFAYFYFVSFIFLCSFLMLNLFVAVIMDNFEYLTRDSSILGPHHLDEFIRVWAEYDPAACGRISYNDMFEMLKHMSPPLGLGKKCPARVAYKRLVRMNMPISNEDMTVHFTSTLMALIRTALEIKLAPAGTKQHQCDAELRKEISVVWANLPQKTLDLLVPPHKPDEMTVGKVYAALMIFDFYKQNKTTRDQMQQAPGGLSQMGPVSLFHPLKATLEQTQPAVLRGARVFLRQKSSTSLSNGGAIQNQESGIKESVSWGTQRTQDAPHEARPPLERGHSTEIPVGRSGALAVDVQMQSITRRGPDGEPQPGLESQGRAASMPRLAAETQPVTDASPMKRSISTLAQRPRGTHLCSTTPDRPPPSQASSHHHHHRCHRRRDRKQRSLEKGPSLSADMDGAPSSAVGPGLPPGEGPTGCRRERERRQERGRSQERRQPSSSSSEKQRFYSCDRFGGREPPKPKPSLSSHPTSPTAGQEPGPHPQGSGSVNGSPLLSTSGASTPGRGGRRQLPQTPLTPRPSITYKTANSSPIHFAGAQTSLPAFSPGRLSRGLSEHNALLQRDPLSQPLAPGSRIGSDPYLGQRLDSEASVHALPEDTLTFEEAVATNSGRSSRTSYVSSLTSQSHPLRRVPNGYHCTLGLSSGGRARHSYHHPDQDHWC

[10] = Inhibition of P2Y purinergic receptor at 1 nM
[11] = molecular target: T5, Type-1 angiotensin II receptor (Homo sapiens) (UniProt P30556); test: Inhibition of type 1 angiotensin 2 receptor at 1 nM
T5 sequence (whole entry): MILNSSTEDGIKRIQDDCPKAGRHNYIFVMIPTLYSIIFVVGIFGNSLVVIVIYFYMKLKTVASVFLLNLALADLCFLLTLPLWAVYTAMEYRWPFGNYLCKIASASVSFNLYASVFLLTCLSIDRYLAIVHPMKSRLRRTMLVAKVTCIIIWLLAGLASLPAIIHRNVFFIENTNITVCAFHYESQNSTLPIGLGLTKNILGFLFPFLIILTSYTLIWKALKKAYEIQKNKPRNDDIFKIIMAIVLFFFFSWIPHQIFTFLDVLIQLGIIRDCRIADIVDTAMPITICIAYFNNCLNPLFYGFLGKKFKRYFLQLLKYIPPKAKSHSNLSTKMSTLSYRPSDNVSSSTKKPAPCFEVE

[12] = molecular target: T4, 5-hydroxytryptamine receptor 1A (Homo sapiens); test: Inhibition of forskolin activated adenylate cyclase at 100 nM; assay type: functional
[13] = molecular target: T5, Type-1 angiotensin II receptor (Homo sapiens); test: Inhibition of type 1 angiotensin 2 receptor at 10 uM
[14] = Inhibitory activity at TBOB site in GABA gated chloride channel at 1 nM
[15] = Distribution coefficient at pH 7.4; assay type: physicochemical; conditions: octanol/water
[16] = molecular target: T6, Leukotriene B4 receptor (Homo sapiens) (UniProt Q9NPC1+Q15722); test: Inhibition of leukotriene B4 at 10 uM; assay type: protein assay
T6 sequence (Q15722 whole entry, looked up): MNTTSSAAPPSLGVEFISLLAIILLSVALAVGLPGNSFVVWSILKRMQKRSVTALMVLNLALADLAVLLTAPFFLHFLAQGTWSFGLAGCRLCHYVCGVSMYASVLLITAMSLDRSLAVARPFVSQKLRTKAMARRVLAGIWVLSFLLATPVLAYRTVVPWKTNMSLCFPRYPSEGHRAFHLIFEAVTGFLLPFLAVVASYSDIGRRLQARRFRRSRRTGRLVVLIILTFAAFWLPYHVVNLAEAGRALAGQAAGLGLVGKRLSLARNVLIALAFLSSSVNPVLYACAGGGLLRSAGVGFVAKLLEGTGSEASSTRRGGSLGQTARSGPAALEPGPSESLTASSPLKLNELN
T6 sequence (Q9NPC1 whole entry, looked up): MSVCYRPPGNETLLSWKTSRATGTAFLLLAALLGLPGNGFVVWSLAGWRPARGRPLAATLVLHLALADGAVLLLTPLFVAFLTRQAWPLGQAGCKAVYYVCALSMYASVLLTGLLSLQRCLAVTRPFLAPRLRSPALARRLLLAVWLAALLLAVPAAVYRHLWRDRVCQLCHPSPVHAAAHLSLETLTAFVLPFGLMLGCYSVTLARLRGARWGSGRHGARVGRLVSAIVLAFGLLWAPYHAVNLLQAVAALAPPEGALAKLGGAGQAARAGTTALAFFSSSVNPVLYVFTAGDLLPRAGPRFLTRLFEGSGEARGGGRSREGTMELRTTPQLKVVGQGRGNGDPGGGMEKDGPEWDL

[17] = molecular target: T1, Dopamine receptor (Homo sapiens); test: Inhibition of non selective binding to dopamine receptor at 10 uM; assay type: protein assay
[18] = Inhibitory activity at TBOB site in GABA gated chloride channel at 100 nM
[19] = molecular target: T2, GABA-A receptor; benzodiazepine site (Homo sapiens); test: Inhibition of central benzodiazepine site on GABAA receptor at 100 nM; assay type: protein-complex assay
[20] = molecular target: 5-hydroxytryptamine receptor 4 (Homo sapiens, UniProt Q13639); test: Inhibitory activity against 5HT4 receptor
Sequence of 5-hydroxytryptamine receptor 4 (Q13639 whole entry): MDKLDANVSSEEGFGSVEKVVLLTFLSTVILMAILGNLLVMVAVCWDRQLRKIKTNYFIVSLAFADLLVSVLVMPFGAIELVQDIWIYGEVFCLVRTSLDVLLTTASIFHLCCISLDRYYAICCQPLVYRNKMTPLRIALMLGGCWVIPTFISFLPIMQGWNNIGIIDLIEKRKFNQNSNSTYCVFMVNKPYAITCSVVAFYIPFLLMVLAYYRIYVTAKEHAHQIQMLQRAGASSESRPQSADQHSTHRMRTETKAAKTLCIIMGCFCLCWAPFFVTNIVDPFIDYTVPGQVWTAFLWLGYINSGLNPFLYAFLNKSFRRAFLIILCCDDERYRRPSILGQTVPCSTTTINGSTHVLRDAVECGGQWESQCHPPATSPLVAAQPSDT

Homo sapiens [21] = species: Homo sapiens; test: Inhibition of inositol triphosphate IP3 at 10 uM; assay type: functional
[22] = Inhibition of non selective binding to VIP at 1 nM
[23] = molecular target: 5-hydroxytryptamine receptor 6 (Homo sapiens, UniProt P50406); test: Inhibitory activity against 5HT6 receptor
Sequence of 5-hydroxytryptamine receptor 6 (P50406 whole entry): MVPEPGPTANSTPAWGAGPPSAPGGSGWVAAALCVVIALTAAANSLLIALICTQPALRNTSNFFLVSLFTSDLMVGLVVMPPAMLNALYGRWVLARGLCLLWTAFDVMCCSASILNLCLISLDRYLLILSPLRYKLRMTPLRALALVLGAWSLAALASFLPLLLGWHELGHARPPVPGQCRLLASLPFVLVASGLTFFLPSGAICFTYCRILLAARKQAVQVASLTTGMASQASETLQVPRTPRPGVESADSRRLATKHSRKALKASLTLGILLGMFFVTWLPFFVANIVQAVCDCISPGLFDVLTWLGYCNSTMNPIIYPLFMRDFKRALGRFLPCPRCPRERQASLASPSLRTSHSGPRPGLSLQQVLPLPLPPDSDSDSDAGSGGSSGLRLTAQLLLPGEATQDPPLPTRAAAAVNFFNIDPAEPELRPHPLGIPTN

[24] = molecular target: T6, Leukotriene B4 receptor (Homo sapiens); test: Inhibition of leukotriene B4 at 1 nM; assay type: protein assay
[25] = molecular target: Glutamate [NMDA] receptor (Homo sapiens) (UniProt Q05586+Q12879+Q13224+O15399+O60391+Q14957+Q8TCU5); test: Inhibition of MK-801 site of glutamate receptor at 100 nM; assay type: protein-complex assay
[26] = molecular target: Epidermal growth factor receptor (Homo sapiens) (UniProt P00533); test: Inhibition of EGFR at 100 nM
[27] = Inhibitory activity at calcium activated potassium channel 6 at 10 uM
[28] = Inhibitory activity at site 2 of sodium channel at 10 uM
[29] = molecular target: GABA-A receptor; agonist GABA site (Homo sapiens) (UniProt P14867+P47870+P28472+P48169+P34903+P18505+P47869+P31644+Q16445); test: Inhibition of agonist site of GABAA receptor at 1 nM; assay type: functional

For `C[C@H](N)Cn1ncc2ccc(O)cc21`, the inhibition [1] was 18.1%, the inhibition [2] was 22.8% and the EC50 [3] was 2.6 µM. The inhibition (Homo sapiens [4]) was 8.56%, the inhibition [5] was -0.51% and the Papp A→B (MDR1 (P-gp)) was 0.76 ×10⁻⁶ cm/s. For the same molecule, the inhibition [6] was 2.48%, the inhibition [7] was 4.1% and the Ki [8] was > 10 µM. It also gave an inhibition [9] of 15.4%, an inhibition [10] of -2.2% and an inhibition [11] of 5.26%. For the same molecule, the inhibition [12] was -2.24%, the inhibition [13] was 6.55% and the inhibition [14] was -3.75%. It also gave a logD [15] of 0.693, an inhibition [16] of 13% and an inhibition [17] of 51.2%. The inhibition [18] was -5.9%, the inhibition [19] was 18.8% and the Ki [20] was 0.515 µM. The inhibition (Homo sapiens [21]) was 2.11%, the inhibition [22] was 5.87% and the Ki [23] was > 10 µM. The inhibition [24] was 0.44%, the inhibition [25] was 11.4% and the inhibition [26] was 1.86%. The inhibition [27] was -8.15%, the inhibition [28] was -0.61% and the inhibition [29] was 15.2%.
